# Experimental data from patent US20250032575A1, “USE OF A MURAMYL PEPTIDE IN THE TREATMENT OF SKELETAL GROWTH RETARDATION” (UNIVERSITE CLAUDE BERNARD LYON 1, priority 2021, published 2025).
# Key:
# Assay type in all cases: in vivo, mice
# [1] = test system: chronically undernourished mouse model; assay: body length (nose-anus) growth in chronically undernourished mouse model; details: for growth rate / relative growth (% length gain, day 21 = 100%) / total height: male mice on low-protein, low-fat diet, day 21 to 56, oral, 5 times a week, vs placebo; for skeletal growth (linear or longitudinal): summary of examples 1 and 2, oral administration, juvenile mice on protein-deficient diet mimicking chronic undernutrition
# Description: (§1) Conventional C57B1/6j laboratory mice have been bred in the Gnotobiology Laboratory for more than 10 generations. Mice have been maintained in IVC cages (Tecniplast, Italy), exposed to 12:12 h light-dark cycles, supplied with tap water and fed ad libitum with sterile diet V1124-300 (Ssniff Spezialdiaten GmbH) (irradiated −25 kGy, Bioster, Czech Republic). The mice have been mated and after delivery, the litter size was reduced to 6 pups per mother. On day 21, male mice have been weaned on the experimental low-protein, low-fat diet (3.5 kcal/gram, protein: 4.1 wt %, carbohydrate: 78 wt %, fat: 2 wt %) and regularly monitored until 56 days after birth (adult age in mice). Mice weaned on the low-protein, low-fat diet have been treated 5 times a week with placebo, composition A containing MDP or composition B containing Murabutide. At the end of the experiment, food and bedding were removed at 8 am and the mice have been sacrificed after 5 hours of fasting by isoflurane inhalation and cervical dislocation. All animals have been sacrificed within one hour between 1 and 2 p.m.
# (§2) The daily treatment dose was 30 μL placebo or for MDP 25 μg in 30 μL placebo and for murabutide 28 μg in 30 μL placebo. Each of the compositions has been administered by pipette to the mouse's tongue. The mouse has been maintained until the composition had been swallowed completely.
# (§3) To measure body length, the mice have briefly been anaesthetised with isoflurane (Piramal Healthcare, UK). The anaesthetised mouse has been held by the tail and the nose-anus length has been measured using a ruler. Relative length has been calculated as % length gain, where body length at day 21 (weaning) has been set to 100%. The length growth rate has been calculated by dividing the absolute length gain from day 21 to day 56 by the number of days (i.e. 35). Femur and tibia bones have been dissected at sacrifice, fixed in 4% paraformaldehyde—PBS overnight at 4° C., washed with PBS and preserved in 70% ethanol. Bone length has been measured using a digital caliper (Festa).
# Conventional C57B1/6j laboratory mice have been bred in the Gnotobiology Laboratory for more than 10 generations. Mice have been maintained in IVC cages (Tecniplast, Italy), exposed to 12:12 h light-dark cycles, supplied with tap water and fed ad libitum with sterile diet V1124-300 (Ssniff Spezialdiäten GmbH) (irradiated −25 kGy, Bioster, Czech Republic). The mice have been mated and after delivery the litter size was reduced to 6 pups per mother. On day 21, male mice have been weaned on the experimental low-protein, low-fat diet (3.5 kcal/gram, protein: 4.1 wt %, carbohydrate: 78 wt %, fat: 2 wt %) and monitored regularly for up to 56 days after birth. Mice weaned on the low-protein, low-fat diet have been treated 5 times a week with either the placebo composition or the composition comprising mifamurtide as prepared in point 1.1 above. At the end of the experiment, the food and bedding were removed at 8 a.m. and the mice have been sacrificed after 5 hours of fasting by isoflurane inhalation and cervical dislocation. All animals have been sacrificed within one hour between 1 and 2 p.m.
# Each of the compositions has been administered by pipette to the tongue of the mouse. The mouse has been held until the composition had been swallowed completely.
# The tests were carried out on male mice with each of the above compositions P, A, AB and B, according to the protocol indicated in example 1, point 1.1 above (56-day period).
# The daily treatment dose was 30 μL of composition P (Placebo) or 25 μg MDP alone in 30 μL of placebo (composition A), or 25 μg MDP and 2.10^8 CFU of Lactiplantibacillus plantarum strain WJL bacteria in 30 μL of placebo (composition AB) or 2.10^8 CFU of Lactiplantibacillus plantarum strain WJL bacteria in 30 μL of placebo (composition B). […]
# [2] = test system: chronically undernourished mouse model; assay: femur and tibia bone length in chronically undernourished mouse model; details: at sacrifice day 56, oral, vs placebo
# Description: as §1, §2, §3
# Conventional C57B1/6j laboratory mice have been bred in the Gnotobiology Laboratory for more than 10 generations. Mice have been maintained in IVC cages (Tecniplast, Italy), exposed to 12:12 h light-dark cycles, supplied with tap water and fed ad libitum with sterile diet V1124-300 (Ssniff Spezialdiäten GmbH) (irradiated −25 kGy, Bioster, Czech Republic). The mice have been mated and after delivery the litter size was reduced to 6 pups per mother. On day 21, male mice have been weaned on the experimental low-protein, low-fat diet (3.5 kcal/gram, protein: 4.1 wt %, carbohydrate: 78 wt %, fat: 2 wt %) and monitored regularly for up to 56 days after birth. […]
# IGF-1 = assay: circulating IGF-1 level in serum, Mouse/Rat IGF-1 Quantikine ELISA; details: serum at day 56, oral, vs placebo
# Description: Conventional C57B1/6j laboratory mice have been bred in the Gnotobiology Laboratory for more than 10 generations. Mice have been maintained in IVC cages (Tecniplast, Italy), exposed to 12:12 h light-dark cycles, supplied with tap water and fed ad libitum with sterile diet V1124-300 (Ssniff Spezialdiaten GmbH) (irradiated −25 kGy, Bioster, Czech Republic). The mice have been mated and after delivery, the litter size was reduced to 6 pups per mother. On day 21, male mice have been weaned on the experimental low-protein, low-fat diet (3.5 kcal/gram, protein: 4.1 wt %, carbohydrate: 78 wt %, fat: 2 wt %) and regularly monitored until 56 days after birth (adult age in mice). […]
# At the end of the experiment, the blood has been collected and left to coagulate at room temperature for 2 hours. […] IGF-1 levels have been measured using the Mouse/Rat IGF-1 Quantikine ELISA kit (R&D systems) according to the manufacturer's instructions. Data have been analysed using the following statistical test: One way ANOVA with Tukey's multiple comparisons test.
# Conventional C57B1/6j laboratory mice have been bred in the Gnotobiology Laboratory for more than 10 generations. […] On day 21, male mice have been weaned on the experimental low-protein, low-fat diet (3.5 kcal/gram, protein: 4.1 wt %, carbohydrate: 78 wt %, fat: 2 wt %) and monitored regularly for up to 56 days after birth. […]
# [3] = Example 1, MDP 25 μg or murabutide 28 μg in 30 μL
# [4] = Example 1, 5 times a week, MDP 25 μg or murabutide 28 μg in 30 μL
# [5] = Example 2, Mifamurtide 62.5 μg/day in 30 μL
Compound,"growth rate [1, 3]","relative growth (% length gain, day 21 = 100%) [1, 3]","total height [1, 3]",skeletal growth (linear or longitudinal) [1],"femur size [2, 4]","length of the tibia [2, 4]",circulating IGF1 level (IGF-1; [4]),"growth rate [1, 5]","relative growth (% length gain, day 21 = 100%) [1, 5]","total height [1, 5]","size of the femur [2, 5]","size of the tibia [2, 5]",circulating IGF1 level (IGF-1; [5])
"CCCCOC(=O)[C@@H](CCC(N)=O)NC(=O)[C@H](C)NC(=O)[C@@H](C)O[C@H]1[C@H](O)[C@@H](CO)OC(O)[C@@H]1NC(C)=O (some centres unmarked) [murabutide, muramyl dipeptide butyl ester]",significantly increased,significantly increased,significantly increased,positive effect,positive trend in murabutide treatment that did not reach statistical significance,positive trend of increased growth,significantly increased,,,,,,
muramyl tripeptide phosphatidyl ethanolamine [Mifamurtide],,,,positive effect,,,,significantly increased,significantly increased,significantly increased,significantly increased,significantly increased,significantly increased
